In ChEMBL document CHEMBL1933067, “The design, synthesis and in vitro immunosuppressive evaluation of novel isobenzofuran derivatives” (Bioorg Med Chem Lett, 2012) one finds IC50 data, which are given here for 36 molecules.

One experiment has as its system T-cell. Description: Immunosuppressive activity in mouse T-cells assessed as inhibition of concanavalin A-induced proliferation. The format is functional, cell-based.
By IC50 is commonly meant the concentration that inhibits the measured activity by half. On to `O=C(Nc1ccccc1)Nc1ccc2c(c1)COC2=O`, for which the IC50 came out at 7.09 µM.
Same read-out and setting: the same measure for `COc1cc(CCC(=O)Nc2ccc3c(c2)COC3=O)cc(OC)c1OC`: 7.74 µM.
With `CN(C(=O)Nc1ccc2c(c1)COC2=O)c1ccccc1`, the IC50 is over 100 µM.
Still for that read-out and setting: under `CC(=O)Oc1cccc(/C=C/C(=O)Nc2ccc3c(c2)COC3=O)c1` stands 0.03 µM; under `O=C(Nc1ccc(Cl)cc1)Nc1ccc2c(c1)COC2=O`, 2.45 µM; under `O=C(Nc1ccc2c(c1)COC2=O)NC1CCCCC1`, 12.7 µM.
Same read-out and setting: under `O=C(Nc1cccc([N+](=O)[O-])c1)C(=O)Nc1ccc2c(c1)COC2=O` stands 1.82 µM; under `COc1c(C)c2c(c(O)c1C/C=C(\C)CCC(=O)O)C(=O)OC2` [MYCOPHENOLIC ACID], 0.28 µM.
Same read-out and setting: under `O=C(Nc1ccc(O)cc1)C(=O)Nc1ccc2c(c1)COC2=O` stands 5.03 µM; under `CN(Cc1ccccc1)C(=O)C(=O)Nc1ccc2c(c1)COC2=O`, 14.3 µM.
Regarding `O=C(Nc1ccc(F)cc1)Nc1ccc2c(c1)COC2=O`, the IC50 was 4.19 µM.
Still for that read-out and setting: under `COc1ccccc1/C=C/C(=O)Nc1ccc2c(c1)COC2=O` stands 0.039 µM.
The same measure, in the same setting: the same measure for `N#Cc1ccc(/C=C/C(=O)Nc2ccc3c(c2)COC3=O)cc1`: 43.1 µM; for `Cc1ccccc1NC(=O)C(=O)Nc1ccc2c(c1)COC2=O`: 5.51 µM.
The same measure, in the same setting: the same measure for `O=C(/C=C/c1cccc(F)c1)Nc1ccc2c(c1)COC2=O`: 0.034 µM; for `O=C(/C=C/c1ccccc1Br)Nc1ccc2c(c1)COC2=O`: over 100 µM.
Turning to `O=C(Nc1ccc(Cl)cc1)C(=O)Nc1ccc2c(c1)COC2=O`, the IC50 is 2.24 µM.
On the same count and under the same terms, the same measure for `O=C(Nc1ccccc1)C(=O)Nc1ccc2c(c1)COC2=O`: 36.1 µM; for `O=C(/C=C/c1ccccc1)Nc1ccc2c(c1)COC2=O`: 7.24 µM; for `O=C(Nc1ccc(F)cc1)C(=O)Nc1ccc2c(c1)COC2=O`: 0.57 µM.
On the same count and under the same terms, the same measure for `COc1cc(/C=C/C(=O)Nc2ccc3c(c2)COC3=O)ccc1OC(C)=O`: 0.136 µM.
For the molecule `COc1cc(/C=C/C(=O)Nc2ccc3c(c2)COC3=O)cc(OC)c1OC`, the IC50 was determined as 1.73 µM.
The same measure, in the same setting: the same measure for `COc1ccc(/C=C/C(=O)Nc2ccc3c(c2)COC3=O)cc1OC`: 0.029 µM; for `Cc1ccc(NC(=O)Nc2ccc3c(c2)COC3=O)cc1`: 2.67 µM; for `CCCNC(=O)Nc1ccc2c(c1)COC2=O`: 58.1 µM.
Same read-out and setting: under `COc1ccc(NC(=O)C(=O)Nc2ccc3c(c2)COC3=O)cc1` stands 153 µM; under `O=C(Nc1ccc(I)cc1)Nc1ccc2c(c1)COC2=O`, 1.37 µM.
Consider `CC(C)(C)NC(=O)C(=O)Nc1ccc2c(c1)COC2=O`, for which the IC50 came out at 3.4 µM.
On the same count and under the same terms, the same measure for `Cc1ccccc1NC(=O)Nc1ccc2c(c1)COC2=O`: 0.9 µM; for `CC(C)c1ccc(/C=C/C(=O)Nc2ccc3c(c2)COC3=O)cc1`: 1.59 µM.
As to `O=C(/C=C/c1ccco1)Nc1ccc2c(c1)COC2=O`, the IC50 is 9 µM.
With `CC(C)(C)c1ccc(/C=C/C(=O)Nc2ccc3c(c2)COC3=O)cc1`, the IC50 stood at 0.72 µM.
Still for that read-out and setting: the same measure for `COc1cc(CN(C)C(=O)C(=O)Nc2ccc3c(c2)COC3=O)cc(OC)c1OC`: 3.28 µM.
Still for that read-out and setting: under `O=C(/C=C/c1ccccn1)Nc1ccc2c(c1)COC2=O` stands 17.9 µM.
Still for that read-out and setting: the same measure for `Cc1cccc(NC(=O)Nc2ccc3c(c2)COC3=O)c1`: 2.26 µM; for `CC(=O)Oc1ccc(/C=C/C(=O)Nc2ccc3c(c2)COC3=O)cc1OC(C)=O`: 0.18 µM.

In a further experiment the target is Inosine-5'-monophosphate dehydrogenase 2 (Homo sapiens, UniProt P12268). Description: Inhibition of IMPDH2.
Regarding `CC(=O)Oc1cccc(/C=C/C(=O)Nc2ccc3c(c2)COC3=O)c1`, inhibition was half-maximal at 8.8 µM (IC50).
Still for that read-out and setting: under `O=C(/C=C/c1cccc(F)c1)Nc1ccc2c(c1)COC2=O` stands 4.5 µM; under `COc1ccc(/C=C/C(=O)Nc2ccc3c(c2)COC3=O)cc1OC`, 2.1 µM.
On the same count and under the same terms, under `CC(C)(C)c1ccc(/C=C/C(=O)Nc2ccc3c(c2)COC3=O)cc1` stands 3.2 µM.
Take `CC(=O)Oc1ccc(/C=C/C(=O)Nc2ccc3c(c2)COC3=O)cc1OC(C)=O`: the IC50 stood at 2.8 µM.
